≈ marks a conversion by molar mass, not a printed value.
Assays:
[1] = tested on: Staphylococcus epidermidis; assay: Antibacterial activity against methicillin-resistant Staphylococcus epidermidis after 16 hrs by agar dilution method; format: functional
[2] = tested on: Staphylococcus epidermidis; assay: Antibacterial activity against methicillin-sensitive Staphylococcus epidermidis after 16 hrs by agar dilution method; format: functional
Streptococcus pneumoniae = assay: Antibacterial activity against penicillin-resistant Streptococcus pneumoniae after 16 hrs by agar dilution method; format: functional
Staphylococcus aureus [3] = assay: Antibacterial activity against Staphylococcus aureus […] after 16 hrs by agar dilution method; format: functional
Staphylococcus aureus [4] = assay: Antibacterial activity against methicillin-resistant Staphylococcus aureus after 16 hrs by agar dilution method; format: functional
Staphylococcus aureus [5] = assay: Antibacterial activity against methicillin-sensitive Staphylococcus aureus after 16 hrs by agar dilution method; format: functional
Cytochrome P450 1A2 = biological target: T1, Cytochrome P450 1A2 (Homo sapiens, UniProt P05177); assay: Inhibition of CYP1A2 in human liver microsomes using phenacetin as substrate after 15 mins by LC/MS/MS analysis
T1 sequence (P05177 whole entry): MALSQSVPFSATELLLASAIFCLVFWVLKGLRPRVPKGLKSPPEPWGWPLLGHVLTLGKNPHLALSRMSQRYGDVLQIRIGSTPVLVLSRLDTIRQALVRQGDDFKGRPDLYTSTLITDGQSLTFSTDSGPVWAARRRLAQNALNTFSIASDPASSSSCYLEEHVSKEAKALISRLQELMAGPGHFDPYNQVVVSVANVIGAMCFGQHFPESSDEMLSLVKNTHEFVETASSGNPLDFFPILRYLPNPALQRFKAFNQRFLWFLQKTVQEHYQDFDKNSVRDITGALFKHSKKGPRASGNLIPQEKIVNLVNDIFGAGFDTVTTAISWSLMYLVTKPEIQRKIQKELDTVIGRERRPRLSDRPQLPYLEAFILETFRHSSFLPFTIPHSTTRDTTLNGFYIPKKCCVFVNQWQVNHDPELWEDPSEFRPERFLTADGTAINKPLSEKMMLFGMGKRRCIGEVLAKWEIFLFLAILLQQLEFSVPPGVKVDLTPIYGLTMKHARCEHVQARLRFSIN

Cytochrome P450 2D6 = Cytochrome P450 2D6 (Homo sapiens, UniProt P10635); assay: Inhibition of CYP2D6 in human liver microsomes using dextromethorphan as substrate after 15 mins by LC/MS/MS analysis
Cytochrome P450 3A4 [6] = biological target: T2, Cytochrome P450 3A4 (Homo sapiens, UniProt P08684); assay: Inhibition of CYP3A4 in human liver microsomes using testosterone as substrate after 15 mins by LC/MS/MS analysis
[7] = AUC (0 to t) in Sprague-Dawley rat at 2 mg/kg, iv administered as cassette dosing; format: ADME, organism-based; design: dose 2 mg/kg, route intravenous; conditions: plasma
Cytochrome P450 2C9 = Cytochrome P450 2C9 (Homo sapiens, UniProt P11712); assay: Inhibition of CYP2C9 in human liver microsomes using tolbutamide as substrate after 15 mins by LC/MS/MS analysis
[8] = Clearance in Sprague-Dawley rat at 2 mg/kg, iv administered as cassette dosing; format: ADME, organism-based; design: dose 2 mg/kg, route intravenous; conditions: in vivo
[9] = Elimination half life in Sprague-Dawley rat at 2 mg/kg, iv administered as cassette dosing; format: ADME, organism-based; design: dose 2 mg/kg, route intravenous; conditions: in vivo, read-out: beta t1/2 (converted)
[10] = Volume of distribution at steady state in Sprague-Dawley rat at 2 mg/kg, iv administered as cassette dosing; format: ADME, organism-based; design: dose 2 mg/kg, route intravenous; conditions: in vivo, read-out: Vdss
Cytochrome P450 3A4 [11] = biological target: T2, Cytochrome P450 3A4; assay: Inhibition of CYP3A4 in human liver microsomes using midazolam as substrate after 15 mins by LC/MS/MS analysis
Cytochrome P450 2C19 = Cytochrome P450 2C19 (Homo sapiens, UniProt P33261); assay: Inhibition of CYP2C19 in human liver microsomes using mephenytoin as substrate after 15 mins by LC/MS/MS analysis
[12] = Mean residence time in Sprague-Dawley rat at 2 mg/kg, iv administered as cassette dosing; format: ADME, organism-based; design: dose 2 mg/kg, route intravenous; conditions: in vivo
Staphylococcus aureus [13] = assay: Antibacterial activity against of methicillin-sensitive Staphylococcus aureus ATCC 19636 infected in iv dosed mouse assessed as host survival administered 1 hr after infection measured after 48 hrs; format: functional; conditions: ATCC 19636, iv
Staphylococcus aureus [14] = assay: Antibacterial activity against of methicillin-sensitive Staphylococcus aureus ATCC 19636 infected in iv dosed mouse administered 1 hr after infection measured after 48 hrs; format: functional

T2 sequence (P08684 whole entry): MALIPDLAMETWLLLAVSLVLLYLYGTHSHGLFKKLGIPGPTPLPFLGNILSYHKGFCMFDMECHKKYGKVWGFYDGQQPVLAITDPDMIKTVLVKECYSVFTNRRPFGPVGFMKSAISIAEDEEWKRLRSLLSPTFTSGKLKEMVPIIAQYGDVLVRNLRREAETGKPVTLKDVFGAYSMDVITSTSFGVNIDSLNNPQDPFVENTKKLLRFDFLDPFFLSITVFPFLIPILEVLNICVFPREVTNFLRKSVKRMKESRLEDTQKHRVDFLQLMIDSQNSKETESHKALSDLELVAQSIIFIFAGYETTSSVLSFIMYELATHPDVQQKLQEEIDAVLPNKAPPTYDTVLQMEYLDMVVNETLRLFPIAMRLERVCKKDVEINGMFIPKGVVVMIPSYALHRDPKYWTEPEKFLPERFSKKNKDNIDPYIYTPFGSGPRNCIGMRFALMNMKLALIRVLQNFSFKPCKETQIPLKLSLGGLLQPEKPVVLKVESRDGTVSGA
Sequence of Cytochrome P450 2C19 (P33261 whole entry): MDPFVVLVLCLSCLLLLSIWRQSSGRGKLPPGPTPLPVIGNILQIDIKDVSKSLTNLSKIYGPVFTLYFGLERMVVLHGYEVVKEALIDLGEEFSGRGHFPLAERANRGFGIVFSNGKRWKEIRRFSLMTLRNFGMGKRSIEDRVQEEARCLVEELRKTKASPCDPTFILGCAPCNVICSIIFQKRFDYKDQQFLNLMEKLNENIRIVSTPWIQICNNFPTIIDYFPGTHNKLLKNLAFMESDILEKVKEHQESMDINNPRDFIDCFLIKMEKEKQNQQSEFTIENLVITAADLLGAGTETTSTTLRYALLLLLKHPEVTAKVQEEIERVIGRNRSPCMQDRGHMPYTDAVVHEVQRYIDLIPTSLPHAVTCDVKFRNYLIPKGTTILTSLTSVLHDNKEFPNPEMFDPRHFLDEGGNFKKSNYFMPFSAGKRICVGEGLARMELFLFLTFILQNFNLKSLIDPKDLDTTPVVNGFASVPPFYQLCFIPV
Sequence of Cytochrome P450 2C9 (P11712 whole entry): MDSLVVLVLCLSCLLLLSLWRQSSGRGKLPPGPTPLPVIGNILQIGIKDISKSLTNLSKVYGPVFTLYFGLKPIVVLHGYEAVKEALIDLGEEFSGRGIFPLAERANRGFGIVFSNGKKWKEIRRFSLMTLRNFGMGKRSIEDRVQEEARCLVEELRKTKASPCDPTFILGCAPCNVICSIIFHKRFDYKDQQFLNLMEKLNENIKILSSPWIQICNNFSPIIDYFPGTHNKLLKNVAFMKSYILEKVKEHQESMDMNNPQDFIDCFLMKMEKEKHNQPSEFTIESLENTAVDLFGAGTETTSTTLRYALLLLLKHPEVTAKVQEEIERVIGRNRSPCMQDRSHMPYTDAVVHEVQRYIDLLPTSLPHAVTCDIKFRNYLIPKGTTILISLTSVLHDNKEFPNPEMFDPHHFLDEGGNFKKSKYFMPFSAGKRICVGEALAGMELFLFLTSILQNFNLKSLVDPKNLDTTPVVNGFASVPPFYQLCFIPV
Sequence of Cytochrome P450 2D6 (P10635 whole entry): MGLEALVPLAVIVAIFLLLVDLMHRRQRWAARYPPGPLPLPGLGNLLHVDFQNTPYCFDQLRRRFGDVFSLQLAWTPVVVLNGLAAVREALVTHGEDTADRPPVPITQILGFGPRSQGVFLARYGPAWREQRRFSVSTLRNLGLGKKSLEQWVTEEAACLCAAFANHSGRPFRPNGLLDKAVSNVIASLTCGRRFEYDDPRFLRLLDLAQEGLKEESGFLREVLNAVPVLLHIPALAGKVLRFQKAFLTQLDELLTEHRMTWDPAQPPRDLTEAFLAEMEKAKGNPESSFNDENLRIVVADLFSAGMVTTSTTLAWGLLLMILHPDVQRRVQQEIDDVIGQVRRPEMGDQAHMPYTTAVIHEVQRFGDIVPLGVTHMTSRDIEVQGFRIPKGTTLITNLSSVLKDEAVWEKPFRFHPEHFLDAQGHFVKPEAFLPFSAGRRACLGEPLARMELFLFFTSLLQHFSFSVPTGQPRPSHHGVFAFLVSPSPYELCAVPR

SMILES	MIC [1] [µg/mL]	MIC [2] [µg/mL]	MIC (Streptococcus pneumoniae) [µg/mL]	MIC (Staphylococcus aureus [3]) [µg/mL]	MIC (Staphylococcus aureus [4]) [µg/mL]	MIC (Staphylococcus aureus [5]) [µg/mL]	IC50 (Cytochrome P450 1A2) [µM]	IC50 (Cytochrome P450 2D6) [µM]	IC50 (Cytochrome P450 3A4 [6]) [µM]	AUC(0-t) [7] [ng·h/mL]	IC50 (Cytochrome P450 2C9) [µM]	clearance [8] [mL/min/kg]	half-life [9] [h]	Vd [10] [L/kg]	IC50 (Cytochrome P450 3A4 [11]) [µM]	IC50 (Cytochrome P450 2C19) [µM]	MRT [12] [h]	ED50 (Staphylococcus aureus [13]) [mg/kg]	MIC (Staphylococcus aureus [14]) [µg/mL]
C=C[C@]1(C)C[C@@H](OC(=O)CSc2cncc(NC(=O)CN3CCCC3)c2)[C@]2(C)[C@H](C)CC[C@]3(CCC(=O)[C@H]32)[C@@H](C)[C@@H]1O	0.125 (≈ 0.209 µM)	0.031 (≈ 0.0519 µM)	0.031 (≈ 0.0519 µM)	0.125 (≈ 0.209 µM)	0.125 (≈ 0.209 µM)	0.125 (≈ 0.209 µM)													
C=C[C@]1(C)C[C@@H](OC(=O)CSc2cncc(NC(=O)CN3CCCCC3)c2)[C@]2(C)[C@H](C)CC[C@]3(CCC(=O)[C@H]32)[C@@H](C)[C@@H]1O	0.125 (≈ 0.204 µM)	0.125 (≈ 0.204 µM)	0.125 (≈ 0.204 µM)	0.125 (≈ 0.204 µM)	0.25 (≈ 0.409 µM)	0.125 (≈ 0.204 µM)													
C=C[C@]1(C)C[C@@H](OC(=O)CSc2cncc(NC(=O)CN3CCC[C@H]3CN)c2)[C@]2(C)[C@H](C)CC[C@]3(CCC(=O)[C@H]32)[C@@H](C)[C@@H]1O	0.5 (≈ 0.798 µM)	0.5 (≈ 0.798 µM)	0.063 (≈ 0.101 µM)	0.25 (≈ 0.399 µM)	1 (≈ 1.6 µM)	0.5 (≈ 0.798 µM)													
C=C[C@]1(C)C[C@@H](OC(=O)CSc2cncc(NC(=O)CN3CCC[C@H]3CO)c2)[C@]2(C)[C@H](C)CC[C@]3(CCC(=O)[C@H]32)[C@@H](C)[C@@H]1O	0.125 (≈ 0.199 µM)	0.125 (≈ 0.199 µM)	0.125 (≈ 0.199 µM)	0.063 (≈ 0.1 µM)	0.125 (≈ 0.199 µM)	0.125 (≈ 0.199 µM)													
C=C[C@]1(C)C[C@@H](OC(=O)CSc2cncc(NC(=O)CN3CC[C@H](O)C3)c2)[C@]2(C)[C@H](C)CC[C@]3(CCC(=O)[C@H]32)[C@@H](C)[C@@H]1O	0.125 (≈ 0.204 µM)	0.125 (≈ 0.204 µM)	0.125 (≈ 0.204 µM)	0.125 (≈ 0.204 µM)	0.125 (≈ 0.204 µM)	0.125 (≈ 0.204 µM)													
C=C[C@]1(C)C[C@@H](OC(=O)CSc2cncc(NC(=O)CN3CCCC(CO)C3)c2)[C@]2(C)[C@H](C)CC[C@]3(CCC(=O)[C@H]32)[C@@H](C)[C@@H]1O (stereo partly drawn)	0.063 (≈ 0.0981 µM)	0.063 (≈ 0.0981 µM)	0.063 (≈ 0.0981 µM)	0.063 (≈ 0.0981 µM)	0.063 (≈ 0.0981 µM)	0.063 (≈ 0.0981 µM)													
C=C[C@]1(C)C[C@@H](OC(=O)CSc2cncc(NC(=O)CN3CCCC(O)C3)c2)[C@]2(C)[C@H](C)CC[C@]3(CCC(=O)[C@H]32)[C@@H](C)[C@@H]1O (stereo partly drawn)	0.063 (≈ 0.1 µM)	0.063 (≈ 0.1 µM)	0.063 (≈ 0.1 µM)	0.063 (≈ 0.1 µM)	0.063 (≈ 0.1 µM)	0.063 (≈ 0.1 µM)	> 25	> 25	1.24	522	> 25	65	0.67	1.9	1.08	12.4	0.48		
C=C[C@]1(C)C[C@@H](OC(=O)CSc2cncc(NC(=O)CNCCO)c2)[C@]2(C)[C@H](C)CC[C@]3(CCC(=O)[C@H]32)[C@@H](C)[C@@H]1O	0.25 (≈ 0.425 µM)	0.125 (≈ 0.213 µM)	0.063 (≈ 0.107 µM)	0.125 (≈ 0.213 µM)	0.25 (≈ 0.425 µM)	0.125 (≈ 0.213 µM)													
C=C[C@]1(C)C[C@@H](OC(=O)CS[C@@H]2CC[C@@H](N)C[C@H]2O)[C@]2(C)[C@H](C)CC[C@]3(CCC(=O)[C@H]32)[C@@H](C)[C@@H]1O [LEFAMULIN]							> 25	> 25	4.43	275	> 25	122	4.4	27.6	4.65	> 25	3.8	3.08	0.031 (≈ 0.0611 µM)
C=C[C@]1(C)C[C@@H](OC(=O)CS[C@@H]2C[C@H]3CC[C@@H](C2)N3C)[C@]2(C)[C@H](C)CC[C@]3(CCC(=O)[C@H]32)[C@@H](C)[C@@H]1O [RETAPAMULIN]	0.063 (≈ 0.122 µM)	0.063 (≈ 0.122 µM)	0.063 (≈ 0.122 µM)	0.125 (≈ 0.241 µM)	0.063 (≈ 0.122 µM)	0.063 (≈ 0.122 µM)													
